Measurements reported in ChEMBL document CHEMBL3797086, “Synthesis and biological evaluation of novel structural hybrids of benzofuroxan derivatives and fluoroquinolones” (Eur J Med Chem, 2016).
Values after ≈ are worked out from the molar mass of the structure shown.

Columns and labels:
[1] = test system: Pseudomonas aeruginosa; assay: microbe, parasite or virus in culture; type: functional; details: 9027
[2] = test system: Escherichia coli; assay: microbe, parasite or virus in culture; type: functional; details: F-50
[3] = test system: Bacillus cereus; assay: microbe, parasite or virus in culture; type: functional; details: 8035
[4] = test system: Staphylococcus aureus; assay: microbe, parasite or virus in culture; type: functional; details: 209p
[5] = test system: Bacillus cereus; assay: microbe, parasite or virus in culture; type: functional; details: Bacillus cereus, 8035, 4 h
[6] = test system: Staphylococcus aureus; assay: microbe, parasite or virus in culture; type: functional; details: 209p, 4 h
[7] = test system: Escherichia coli; assay: microbe, parasite or virus in culture; type: functional; details: F-50, 4 h
[8] = test system: Pseudomonas aeruginosa; assay: microbe, parasite or virus in culture; type: functional; details: Pseudomonas aeruginosa, 9027, 4 h
[9] = in vitro; details: human
[10] = test system: Bacillus cereus; assay: Potency index, ratio of lomefloxacin MBC to compound MBC for Bacillus cereus 8035; type: functional
[11] = red blood cells (RBC), at 0.19 to 3.9 µg/mL

CC1CN(c2c(F)c(N)c3c(=O)c(C(=O)O)cn(C4CC4)c3c2F)CC(C)N1.O=[N+]([O-])c1c(Cl)cc2c(no[n+]2[O-])c1O (stereo not drawn)
MIC [1]: 3.1 µg/mL
MIC [2]: 1.5 µg/mL
MIC [3]: 0.19 µg/mL
MIC [4]: 0.39 µg/mL
MBC [5]: 1.5 µg/mL
MBC [6]: 0.39 µg/mL
MBC [7]: 1.5 µg/mL
MBC [8]: 6.3 µg/mL
hemolysis at 1 h [9, 11]: ≤ 1%

C[C@@H]1CN(c2c(F)c(N)c3c(=O)c(C(=O)O)cn(C4CC4)c3c2F)C[C@H](C)N1 [SPARFLOXACIN]
MIC [1]: 0.78 µg/mL (≈ 1.99 µM)
MIC [2]: 0.19 µg/mL (≈ 0.484 µM)
MIC [3]: 0.19 µg/mL (≈ 0.484 µM)
MIC [4]: 0.19 µg/mL (≈ 0.484 µM)
MBC [5]: 3.1 µg/mL (≈ 7.9 µM)
MBC [6]: 0.39 µg/mL (≈ 0.994 µM)
MBC [7]: 3.1 µg/mL (≈ 7.9 µM)
MBC [8]: 3.1 µg/mL (≈ 7.9 µM)
hemolysis at 1 h [9, 11]: ≤ 1%

CCn1cc(C(=O)O)c(=O)c2cc(F)c(N3CCNC(C)C3)c(F)c21 (stereo not drawn) [LOMEFLOXACIN]
MIC [1]: 6.3 µg/mL (≈ 17.9 µM)
MIC [2]: 3.1 µg/mL (≈ 8.82 µM)
MIC [3]: 6.3 µg/mL (≈ 17.9 µM)
MIC [4]: 0.78 µg/mL (≈ 2.22 µM)
MBC [5]: 12.5 µg/mL (≈ 35.6 µM)
MBC [6]: 3.1 µg/mL (≈ 8.82 µM)
MBC [7]: 6.3 µg/mL (≈ 17.9 µM)
MBC [8]: 12.5 µg/mL (≈ 35.6 µM)
hemolysis at 1 h [9, 11]: ≤ 1%

O=C(O)c1cn(C2CC2)c2cc(N3CCNCC3)c(F)cc2c1=O [CIPROFLOXACIN]
MIC [1]: 0.39 µg/mL (≈ 1.18 µM)
MIC [3]: 0.39 µg/mL (≈ 1.18 µM)
MIC [4]: 0.19 µg/mL (≈ 0.573 µM)
MBC [5]: 6.3 µg/mL (≈ 19 µM)
MBC [6]: 1.5 µg/mL (≈ 4.53 µM)
MBC [7]: 3.1 µg/mL (≈ 9.36 µM)
MBC [8]: 3.1 µg/mL (≈ 9.36 µM)
hemolysis at 1 h ([9]; erythrocyte): ≤ 1%

O=C(O)c1cn(C2CC2)c2cc(N3CCNCC3)c(F)cc2c1=O.O=[N+]([O-])c1c(Cl)cc2c(no[n+]2[O-])c1O
MIC [1]: 15.6 µg/mL
MIC [3]: 7.8 µg/mL
MIC [4]: 3.9 µg/mL
MBC [5]: 62.5 µg/mL
MBC [6]: 7.8 µg/mL
MBC [8]: 31.3 µg/mL

CCn1cc(C(=O)O)c(=O)c2cc(F)c(N3CCNCC3)cc21.O=[N+]([O-])c1c(Cl)cc2c(no[n+]2[O-])c1O
MIC [1]: 31.3 µg/mL
MIC [3]: 7.8 µg/mL
MIC [4]: 7.8 µg/mL
MBC [5]: 15.6 µg/mL
MBC [6]: 31.3 µg/mL
MBC [7]: > 500 µg/mL
MBC [8]: > 500 µg/mL
hemolysis at 1 h [9, 11]: ≤ 1%

CCn1cc(C(=O)O)c(=O)c2cc(F)c(N3CCNC(C)C3)c(F)c21.O=[N+]([O-])c1c(Cl)cc2c(no[n+]2[O-])c1O (stereo not drawn)
MIC [1]: 6.3 µg/mL
MIC [2]: 3.1 µg/mL
MIC [3]: 0.97 µg/mL
MIC [4]: 0.97 µg/mL
MBC [5]: 1.5 µg/mL
MBC [6]: 1.9 µg/mL
MBC [7]: 12.5 µg/mL
MBC [8]: 12.5 µg/mL
Ratio [10]: 8
hemolysis at 1 h [9, 11]: ≤ 1%

CCn1cc(C(=O)O)c(=O)c2cc(F)c(N3CCNCC3)cc21 [NORFLOXACIN]
MIC [1]: 3.1 µg/mL (≈ 9.71 µM)
MIC [2]: 0.19 µg/mL (≈ 0.595 µM)
MIC [3]: 1.5 µg/mL (≈ 4.7 µM)
MIC [4]: 0.39 µg/mL (≈ 1.22 µM)
MBC [5]: 3.1 µg/mL (≈ 9.71 µM)
MBC [6]: 6.3 µg/mL (≈ 19.7 µM)
MBC [7]: 3.1 µg/mL (≈ 9.71 µM)
MBC [8]: 25 µg/mL (≈ 78.3 µM)
hemolysis at 1 h [9, 11]: ≤ 1%
